From PMC6142691, “Cannabidiol enhances morphine antinociception, diminishes NMDA-mediated seizures and reduces stroke damage via the sigma 1 receptor” (Molecular Brain, 2018)

Assays:
[1] = molecular target: T1, sigma 1 receptor (σ1R) (Mus musculus, UniProt O55242); test: in vitro pull-down: disruption of recombinant σ1R-NR1 complex, immunoblot; type: binding; set-up: gene Sigmar1; murine full-length (1–223) σ1R, recombinant from E. coli, GST-free; with NMDAR NR1 subunit C-terminal region (residues 827–938)
T1 sequence (O55242 whole entry, the tested form may be a part): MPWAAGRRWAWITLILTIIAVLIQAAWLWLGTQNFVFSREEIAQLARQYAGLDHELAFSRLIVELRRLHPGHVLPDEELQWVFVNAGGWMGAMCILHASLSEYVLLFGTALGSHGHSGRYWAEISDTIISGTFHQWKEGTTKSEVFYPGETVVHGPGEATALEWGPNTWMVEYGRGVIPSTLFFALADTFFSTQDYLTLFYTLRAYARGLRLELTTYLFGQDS
T1 sequence (P35438 827-938 partner): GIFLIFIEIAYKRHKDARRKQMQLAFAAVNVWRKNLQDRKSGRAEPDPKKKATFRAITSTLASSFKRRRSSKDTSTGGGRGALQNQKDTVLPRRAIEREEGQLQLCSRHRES

[2] = molecular target: T1, sigma 1 receptor (σ1R); test: in vitro pull-down: reversal of progesterone/CBD-induced disruption of recombinant σ1R-NR1 complex; type: biochemical; set-up: gene Sigmar1; murine full-length (1–223) σ1R, recombinant from E. coli, GST-free; with NMDAR NR1 subunit C-terminal region (residues 827–938)
[3] = molecular target: T1, sigma 1 receptor (σ1R); test: biochemical; set-up: gene Sigmar1

CC(=O)[C@H]1CC[C@H]2[C@@H]3CCC4=CC(=O)CC[C@]4(C)[C@H]3CC[C@]12C [Progesterone] showed an EC50 [1] of roughly 0.03 nM.
With O=C(NC1CCN(Cc2ccccc2)CC1)c1ccc(I)cc1 [4-IBP] the “in vitro pull-down: reversal of progesterone/CBD-induced disruption of recombina” value [2] was “PPCC, PRE084 and 4-IBP did not alter σ1R-NR1 associations but reduced the capacity of progesterone and CBD”.
COC(=O)[C@]1(c2ccc(C)cc2)C[C@@H]1CN1CCC(O)(c2ccccc2)CC1 (racemic) [PPCC] was tested, and the Ki [3] was 0.06 nM.
O=C(OCCN1CCOCC1)C1(c2ccccc2)CCCCC1 [PRE084] was tested, and the “in vitro pull-down: reversal of progesterone/CBD-induced disruption of recombina” value [2] was “PPCC, PRE084 and 4-IBP did not alter σ1R-NR1 associations but reduced the capacity of progesterone and CBD”.
C=C(C)[C@@H]1CCC(C)=C[C@H]1c1c(O)cc(CCCCC)cc1O [CBD, Cannabidiol] gave an EC50 [1] of roughly 0.1 nM.
Work on CN1CCN(CCc2ccc(Cl)c(Cl)c2)CC1 [BD1063] yielded an EC50 [1] of roughly 0.03 nM.
